The numbers were not newly measured in paper PMC5907794 (Journal of Medicinal Chemistry, 2018), which cites them from elsewhere.

The conditions of series [1]: ref 60−63.
For series [2] the following is noted: ref 60−62.

For `CC(=O)O[C@H]1C(=O)[C@@]2(C)[C@H]([C@H](OC(=O)c3ccccc3)[C@]3(O)C[C@H](OC(=O)[C@H](O)[C@@H](NC(=O)c4ccccc4)c4ccccc4)C(C)=C1C3(C)C)[C@]1(OC(C)=O)CO[C@@H]1C[C@@H]2O` [Paclitaxel, paclitaxel], the Dose-limiting side effects result in series [1] is “severe dose-limiting side effects”. The “Solubility in aqueous media (in words)” value in series [2] is listed as “low solubility in aqueous media”.
